Test results as given in patent publication US20060257543A1, “Molecules comprising linked organic moieties as flavor modifiers for comestible compositions” (priority 2005, published 2006).

Molecular target: T1, hT1R1/hT1R3 umami receptor expressed in an HEK293 cell line (Homo sapiens, UniProt Q7RTX0+Q7RTX1)
T1 construct: expressed in transfected cells; host or cells: HEK293 derivative, clone I-17, expression induced with mifepristone
T1 sequence (Q7RTX1 21-841): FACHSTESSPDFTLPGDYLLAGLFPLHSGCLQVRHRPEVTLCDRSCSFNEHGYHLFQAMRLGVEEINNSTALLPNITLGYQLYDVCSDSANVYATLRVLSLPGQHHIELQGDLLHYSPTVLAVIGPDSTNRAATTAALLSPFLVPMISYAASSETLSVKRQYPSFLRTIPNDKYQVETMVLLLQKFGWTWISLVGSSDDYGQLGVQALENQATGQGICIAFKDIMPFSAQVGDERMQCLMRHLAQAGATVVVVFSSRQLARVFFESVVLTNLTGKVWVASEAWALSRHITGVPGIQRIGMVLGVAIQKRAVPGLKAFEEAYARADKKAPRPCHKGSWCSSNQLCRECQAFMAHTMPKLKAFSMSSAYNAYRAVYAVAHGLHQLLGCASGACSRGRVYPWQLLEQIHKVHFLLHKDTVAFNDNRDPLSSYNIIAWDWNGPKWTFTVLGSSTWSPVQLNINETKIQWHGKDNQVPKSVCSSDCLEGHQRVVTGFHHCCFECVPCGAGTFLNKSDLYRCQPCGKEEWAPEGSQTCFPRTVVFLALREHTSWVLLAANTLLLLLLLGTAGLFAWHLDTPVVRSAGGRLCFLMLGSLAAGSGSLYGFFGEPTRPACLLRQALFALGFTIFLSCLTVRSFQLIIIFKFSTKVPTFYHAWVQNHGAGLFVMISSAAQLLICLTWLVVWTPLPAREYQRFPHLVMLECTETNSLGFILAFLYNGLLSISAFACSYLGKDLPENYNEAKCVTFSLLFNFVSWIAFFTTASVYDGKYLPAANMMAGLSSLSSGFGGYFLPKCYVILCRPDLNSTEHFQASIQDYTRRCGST
T1 sequence (Q7RTX0 21-852): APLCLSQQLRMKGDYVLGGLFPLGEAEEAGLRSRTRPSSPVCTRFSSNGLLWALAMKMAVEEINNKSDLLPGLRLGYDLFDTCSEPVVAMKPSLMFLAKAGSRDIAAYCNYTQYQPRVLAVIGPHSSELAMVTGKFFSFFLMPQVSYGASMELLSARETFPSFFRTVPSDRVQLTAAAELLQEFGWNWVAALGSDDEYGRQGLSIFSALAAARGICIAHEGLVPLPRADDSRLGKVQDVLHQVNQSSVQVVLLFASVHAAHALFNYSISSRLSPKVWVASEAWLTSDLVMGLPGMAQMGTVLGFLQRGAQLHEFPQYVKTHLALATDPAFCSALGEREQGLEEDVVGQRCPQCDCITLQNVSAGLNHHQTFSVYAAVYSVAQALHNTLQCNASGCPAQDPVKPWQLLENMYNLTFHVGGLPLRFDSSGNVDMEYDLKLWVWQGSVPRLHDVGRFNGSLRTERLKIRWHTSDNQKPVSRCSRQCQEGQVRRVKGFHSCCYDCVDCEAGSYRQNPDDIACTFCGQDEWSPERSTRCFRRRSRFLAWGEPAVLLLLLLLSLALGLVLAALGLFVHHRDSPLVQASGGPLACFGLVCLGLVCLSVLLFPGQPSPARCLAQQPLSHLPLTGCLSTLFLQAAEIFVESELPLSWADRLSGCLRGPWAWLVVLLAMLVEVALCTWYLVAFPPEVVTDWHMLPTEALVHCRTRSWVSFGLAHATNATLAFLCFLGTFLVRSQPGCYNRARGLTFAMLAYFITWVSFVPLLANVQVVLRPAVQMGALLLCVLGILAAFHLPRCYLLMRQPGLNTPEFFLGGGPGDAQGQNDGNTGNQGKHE
Assay: In vitro hT1R1/hT1R3 umami taste receptor activation assay (FLIPR, dose response)
Format: cell-based
Conditions: read-out: EC50 for activation of a hT1R1/hT1R3 umami receptor expressed in an HEK293 cell line
Description: In order to identify new savory flavoring agents and enhancers, including compounds with savory agonist and enhancer activities (dual activity), the tastant compounds of Formula (I) were screened in primary assays and secondary assays including compound dose response and enhancement assay. In a primary assay for potential ability to modulate umami taste, tastant compounds of Formula (I) that can be either savory flavoring agents in their own right or flavor enhancers of MSG are identified and scores of their activities are given as percentage of the maximum MSG intensity (%). In compound dose response, an EC50 is calculated to reflect the potency of the compound as a savory agonist or enhancer.
An HEK293 cell line derivative (see e.g., Chandrashekar, et al., Cell (2000) 100: 703-711) which stably expresses Gα15 and hT1R1/hT1R3 under an inducible promoter (see WO 03/001876 A2) was used to identify compounds with savory tasting properties.
Compounds disclosed in this application were initially selected based on their activity on the hT1R1/hT1R3-HEK293-Gα15 cell line. Activity was determined using an automated fluorometric imaging assay on a FLIPR instrument (Fluorometric Intensity Plate Reader, Molecular Devices, Sunnyvale, Calif.) (designated FLIPR assay). Cells from one clone (designated clone I-17) were seeded into 384-well plates (at approximately 48,000 cells per well) in a medium containing Dulbecco's modified Eagle's medium (DMEM) supplemented with GlutaMAX (Invitrogen, Carlsbad, Calif.), 10% dialyzed fetal bovine serum (Invitrogen, Carlsbad, Calif.), 100 Units/ml Penicillin G, 100 μg/ml Streptomycin (Invitrogen, Carlsbad, Calif.) and 60 pM mifepristone (to induce expression of hT1R1/hT1R3, (see WO 03/001876 A2). I-17 cells were grown for 48 hours at 37° C. I-17 cells were then loaded with the calcium dye Fluo-3AM (Molecular Probes, Eugene, Oreg.), 4 μM in a phosphate buffered saline (D-PBS) (Invitrogen, Carlsbad, Calif.), for 1.5 hours at room temperature. After replacement with 25 μl D-PBS, stimulation was performed in the FLIPR instrument and at room temperature by the addition of 25 μl D-PBS supplemented with different stimuli at concentrations corresponding to twice the desired final level. Receptor activity was quantified by determining the maximal fluorescence increases (using a 480 nm excitation and 535 nm emission) after normalization to basal fluorescence intensity measured before stimulation.
(§1) For dose-responses analysis, stimuli were presented in duplicates at 10 different concentrations ranging from 1.5 nM to 30 μM. Activities were normalized to the response obtained with 60 mM monosodium glutamate, a concentration that elicits maximum receptor response. EC50s (concentration of compound that causes 50% activation of receptor) were determined using a non-linear regression algorithm, where the Hill slope, bottom asymptotes and top asymptotes were allow to vary. Identical results were obtained when analyzing the dose-response data using commercially available software for non-linear regression analysis such as GraphPad PRISM (San Diego, Calif.).

Row | EC50 [µM] | Compound
1 | 0.55 | CCOc1ccc(NC(=S)NCCc2ccccn2)cc1 [Example 2]

Same assay, conditions: read-out: Umami EC50

Row | Compound | EC50 [µM]
2 | CC(C)(C)c1ccc(NC(=S)NCCc2ccccn2)cc1 [Example A3] | 1.92
3 | CC1CCCCC1NC(=S)Nc1ccc2c(c1)OCO2 (stereo not shown) [Example A19] | 13.4
4 | CSc1ccccc1NC(=S)NC1CCCCC1C (stereo not shown) [Example A15] | 3
5 | S=C(NCCc1ccccn1)Nc1ccccc1OCc1ccccc1 [Example A1] | 1.31
6 | CC(C)(C)c1ccc(NC(=S)NCc2ccccn2)cc1 [Example A16] | 3.71
7 | Cc1cc(CNC(=S)Nc2ccc(OC(C)C)cc2)no1 [Example A20] | 11
8 | CSc1ccc(NC(=S)NCCc2ccccn2)cc1 [Example A5] | 3.26
9 | CCc1ccc(NC(=S)NCCc2ccccn2)cc1 [Example A4] | 1.37
10 | CCOC(=O)COc1ccc(S(=O)(=O)Nc2ccc3c(c2)OCO3)cc1 [Example A14] | 14.4

Results, then the molecule that gave them:

Row | EC50 [µM] | Compound
11 | 10.3 | O=S(=O)(NCc1cc(F)cc2c1OCOC2)c1ccc(-c2ccccn2)s1 [Example A23]
12 | 3.87 | O=C(OCc1ccccn1)c1ccc(COc2cccc3ccccc23)cc1 [Example A22]
13 | 14.5 | CC(C)Oc1ccc(NC(=S)NCc2ncc[nH]2)cc1 [Example A21]

Molecular target: T2, hT1R2/hT1R3 sweet receptor expressed in an HEK293 cell line (Homo sapiens, UniProt Q7RTX0+Q8TE23)
T2 construct: expressed in transfected cells; host or cells: HEK293 derivative, clone S-9
T2 sequence (Q8TE23 20-839): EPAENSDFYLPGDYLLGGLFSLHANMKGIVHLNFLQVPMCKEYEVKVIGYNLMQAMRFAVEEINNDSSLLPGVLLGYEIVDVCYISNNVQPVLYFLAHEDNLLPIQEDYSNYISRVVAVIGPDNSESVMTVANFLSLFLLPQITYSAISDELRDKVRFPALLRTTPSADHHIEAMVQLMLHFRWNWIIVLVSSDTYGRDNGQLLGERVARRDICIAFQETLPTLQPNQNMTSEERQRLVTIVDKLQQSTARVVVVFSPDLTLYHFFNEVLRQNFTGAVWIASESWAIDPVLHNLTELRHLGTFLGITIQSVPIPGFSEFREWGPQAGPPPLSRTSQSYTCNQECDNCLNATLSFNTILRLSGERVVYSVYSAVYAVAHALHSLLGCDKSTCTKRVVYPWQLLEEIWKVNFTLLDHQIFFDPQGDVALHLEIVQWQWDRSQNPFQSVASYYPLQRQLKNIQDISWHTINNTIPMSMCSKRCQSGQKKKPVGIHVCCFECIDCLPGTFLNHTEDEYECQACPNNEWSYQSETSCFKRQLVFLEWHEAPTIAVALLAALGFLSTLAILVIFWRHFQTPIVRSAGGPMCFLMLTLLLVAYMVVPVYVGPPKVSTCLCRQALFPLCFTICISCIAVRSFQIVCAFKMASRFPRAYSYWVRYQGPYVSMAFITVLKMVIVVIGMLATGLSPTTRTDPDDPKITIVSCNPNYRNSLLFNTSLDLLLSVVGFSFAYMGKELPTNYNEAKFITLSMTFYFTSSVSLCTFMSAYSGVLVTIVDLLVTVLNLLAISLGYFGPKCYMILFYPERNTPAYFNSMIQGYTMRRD
T2 sequence (Q7RTX0 21-852): T1 sequence (Q7RTX0 21-852)
Assay: In vitro hT1R2/hT1R3 sweet taste receptor activation assay (FLIPR, dose response)
Format: cell-based
Conditions: read-out: EC50 for activation of a hT1R2/hT1R3 sweet receptor
Description: An HEK293 cell line derivative (see Chandrashekar, J., Mueller, K. L., Hoon, M. A., Adler, E., Feng, L., Guo, W., Zuker, C. S., Ryba, N. J.,. Cel,l 2000, 100, 703-711.) that stably expresses Gα15 and hT1R2/hT1R3 (see Li, X., Staszewski, L., Xu, H., Durick, K., Zoller, M., Adler, E. Proc Natl Acad Sci USA 2002, 99, 4692-4696, and PCT Publication No. WO 03/001876) was used to identify compounds with sweet taste enhancing properties. These references are hereby incorporated herein by reference for their methods of preparing and maintaing the cell lines discussed below, and for their methods for screeing compounds that inhibit the biological receptors.
Compounds covered in this document were initially selected based on their activity on the hT1R2/hT1R3—HEK293-Gα15 cell line (Li, et al. vide supra). Activity was determined using an automated fluorometric imaging assay on a FLIPR instrument (Fluorometric Intensity Plate Reader, Molecular Devices, Sunnyvale, Calif.) (designated FLIPR assay). Cells from one clone (designated S-9 cells) were seeded into 384-well plates (at approximately 50,000 cells per well) in a medium containing DMEM Low Glucose (Invitrogen, Carlsbad, Calif.), 10% dialyzed fetal bovine serum (Invitrogen, Carlsbad, Calif.), 100 Units/ml Penicillin G, and 100 μg/ml Streptomycin (Invitrogen, Carlsbad, Calif.) (Li, et al. vide supra) see also World Patent No. WO 03/001876 A2). S-9 cells were grown for 24 hours at 37° C. S-9 cells were then loaded with the calcium dye Fluo-3AM (Molecular Probes, Eugene, Oreg.), 4 μM in a phosphate buffered saline (D-PBS) (Invitrogen, Carlsbad, Calif.), for 1 hour at room temperature. After replacement with 25 μl D-PBS, stimulation was performed in the FLIPR instrument and at room temperature by the addition of 25 μl D-PBS supplemented with different stimuli at concentrations corresponding to twice the desired final level. Receptor activity was quantified by determining the maximal fluorescence increases (using a 480 nm excitation and 535 nm emission) after normalization to basal fluorescence intensity measured before stimulation.
as §1, with “60” for “1.5”, “400” for “60”, “D-fructose,” for “monosodium glutamate,”, “EC50s” for “EC50s (concentration of compound that causes 50% activation of receptor)”, “algorithm (using a Senomyx, Inc. software),” for “algorithm,”

Row | EC50 [µM] | Compound
14 | 0.025 | CC(C)Oc1ccc(NC(=S)NCc2ccc[nH]2)cc1 [Example 19, 1-((1H-pyrrol-2-yl)methyl)-3-(4-isopropoxyphenyl)thiourea]
15 | 2.1 | COc1ccc(CNc2ccc(F)cc2F)cc1O [Example 14, 5-((2,4-difluorophenylamino)methyl)-2-methoxyphenol]

Row | Compound | EC50 [µM]
16 | CCC(C)Oc1ccc(NC(=S)NCc2ccco2)cc1 (stereo not shown) [Example 9, 1-(4-sec-Butoxy-phenyl)-3-furan-2-ylmethyl-thiourea] | 5.3

Same assay, conditions: read-out: Sweet EC50

Row | EC50 [µM] | Compound
17 | 1.51 | CCCOc1ccc(NC(=S)NCc2ccco2)cc1 [Example B5]
18 | 0.59 | FC(F)(F)Oc1ccc(NC(=S)NCc2ccc[nH]2)cc1 [Example B20]
19 | 14.2 | CC(C)Oc1ccc(NC(=S)NCc2ccncc2)cc1 [Example B41]
20 | 4.09 | CCN(CC)c1ccc(NC(=S)NCc2ccoc2)cc1 [Example B8]
21 | 4.16 | CCOc1ccc(NC(=S)NCc2sccc2C)cc1 [Example B31]
22 | 8 | COc1ccc(Cl)cc1S(=O)(=O)NCc1ccco1 [Example B49]
